The results in this text go back to publication PMC12362783 (Advanced Science, 2025).

Molecules are shown by their SMILES. Where two headings read alike, the source gives them in different places.

One test has as its target PARP1 (Homo sapiens, UniProt P09874). Briefly: PARP enzymatic inhibition ELISA (PARP1). It is filed as biochemical. The following applies: for IC50: n = 3, mean ± SD. As for the experimental part: The PARP activity assay was performed by ChemPartner (Shanghai, China). Each well was precoated with histone (final conc.: 100 ng mL^−1) diluted in PBS buffer (contains 10 mmol L^−1 NaH2PO4 and 150 mmol L^−1 NaCl, pH 7.4) by incubation at 4 °C overnight. […] The reaction was initiated by the addition of 10 µL of PARP (final conc.: 0.007 nM/well) at room temperature for 60 min. Add 20 µL of anti‐Poly/Mono‐ADP Ribose Rabbit mAb. Incubate for 1.5 h at room temperature and wash the plate three times using PBST buffer. […] Incubate for 1 h at room temperature and wash the plate three times using PBST buffer. Add 25 µL Femto‐ECL Substrate A and Femto‐ECL Substrate B (1:1) mix. Immediately read chemiluminescence on Envision (Revvity, USA).
For orientation: An ELISA detects its analyte on a solid surface through an enzyme-linked reagent.

Test [1] deals with MDA‐MB‐468 cells. As to the kind of experiment: Cell cycle assay, flow cytometry (PI). The test is classed as cell-based. The following applies: MDA‐MB‐468, 48 h; A7, B8 0.5 and 1.0 µM, controls 1.0 µM. As for the experimental part:
(§1) The cell cycle analysis was performed with cells seeded in 6‐well plates in growth media. The cells were allowed to attach overnight (8 h). The cultures were treated with different tested drugs for 48 h. After treatment, cells were collected and fixed with 70% pre‐cold ethanol in PBS and stored at −20 °C overnight. Then washed the cells with PBS twice, and incubated with 100 µg mL^−1 RNase A at 37 °C for 1 h, stained with propidium iodide for 30 min avoid light at room temperature. The stained cells were analyzed by flow cytometry. The percentages of cells in the G1, S, and G2/M phases were determined. The data were analyzed by FlowJo software (Tree Star, Inc., Ashland, OR).
(In flow cytometry, cells or beads pass a laser one at a time.)

For test [2], the system named is MDA‐MB‐231 cells. Briefly: Cell cycle assay, flow cytometry (PI). It is filed as cell-based. The following applies: MDA‐MB‐231, 48 h; A7, B8 0.5 and 1.0 µM, controls 1.0 µM. The procedure:
as §1

The next test concerns MDA‐MB‐436. Briefly: Cell growth inhibition, CellTiter‐Glo (CTG). It is filed as cell-based. The following applies: CTG, 5 days, n = 3. The procedure: (§2) All cells were grown in a humidified incubator at 37 °C and 5% CO2.
(§3) Growth viability was determined by the CellTiter‐Glo luminescent viability assay (Promega) 5 days after drug treatment. Cell viability was measured immediately after dosing (Day 0) and after 5 days of incubation using CellTiter‐Glo (CTG, Promega, G7573). Relative viability was calculated by normalizing the raw luminescence counts of the treated groups to those of the DMSO control groups. IC₅₀ values were calculated using sigmoidal dose‐response curve fitting with GraphPad Prism 9.0 software.

Another test addresses T1, ATR (Homo sapiens, UniProt Q13535).
T1 construct: purchased Eurofins 14-953
Briefly: ATR kinase inhibition, Mobility Shift Assay. It is filed as biochemical. As to conditions: for IC50: n = 3, mean ± SD. As for the experimental part:
The in vitro ATR kinase inhibitory activities were determined by ChemPartner Co., Ltd. (Shanghai, China) using the Mobility Shift Assay. The tested compound was dissolved with DMSO and diluted to 1000/3 × of the final desired highest inhibitor concentration in the reaction. […] The assay wells were incubated at 28 °C for 4 h.

Another test relates to MDA‐MB‐231. Briefly: Cell growth inhibition, CellTiter‐Glo (CTG). It is filed as cell-based. As to conditions: Homo sapiens, MDA-MB-231, 120 h, read-out: IC50 MDA‐MB‐231; CTG, 5 days, n = 3. The procedure: as §2
(§4) […] […] Relative viability was calculated by normalizing the raw luminescence counts of the treated groups to those of the DMSO control groups. IC₅₀ values were calculated using sigmoidal dose‐response curve fitting with GraphPad Prism 9.0 software.

Another test has as its system MDA‐MB‐468. Briefly: Cell growth inhibition, CellTiter‐Glo (CTG). The test is classed as cell-based. The following applies: Homo sapiens, MDA-MB-468, 120 h; CTG, 5 days, n = 3. The procedure: as §2, §4
Test [3] relates to MDA‐MB‐468 cells. Briefly: Cell apoptosis assay, Annexin V‐FITC/PI. As to conditions: MDA‐MB‐468, 72 h. It is filed as cell-based. As for the experimental part: (§5) The cell apoptosis analysis was performed with cells seeded in 6‐well plates in growth media. The cells were allowed to attach overnight (8 h). The cultures were treated with different tested drugs for 72 h and evaluated using an Annexin V Flow Kit (BioLegend#B367750) according to the manufacturer's instructions. The data were analyzed by FlowJo software (Tree Star, Inc., Ashland, OR).

Test [4] deals with MDA‐MB‐231 cells. As to the kind of experiment: Cell apoptosis assay, Annexin V‐FITC/PI. The test is classed as cell-based. The following applies: MDA‐MB‐231, 72 h. The procedure: as §5
Test [5] relates to TNBC cells (MDA‐MB‐231, MDA‐MB‐468, MDA‐MB‐436). As to the kind of experiment: Anti‐proliferative activity across three TNBC cell lines (summary). It is filed as cell-based. The procedure:
as §3, with “Cells were grown at 37 °C, under 95% air and 5% CO₂ until they reached about 70% confluence and were subcultured at least twice before the experiment. Cells were seeded at a density of 1000 cells/well in two 384‐well white plates, and the plates were placed in a 5% CO₂ incubator overnight. Growth” for “Growth”

Another test relates to MCF‐10A. As to the kind of experiment: Cell growth inhibition, normal breast cell line. The test is classed as cell-based. As to conditions: Homo sapiens, MCF-10A; @30 µM; read-out: MCF‐10A inhibitory rate at certain concentration. The procedure: as §3
A further test deals with MDA‐MB‐453. Briefly: Cell growth inhibition, CellTiter‐Glo (CTG). It is filed as cell-based. As to conditions: Homo sapiens. The procedure:
as §3

The subject of another test is MCF‐7. As to the kind of experiment: Cell growth inhibition, CellTiter‐Glo (CTG). It is filed as cell-based. As to conditions: Homo sapiens, MCF7; n = 3. As for the experimental part: as §3
Setting [6] is: Homo sapiens, MDA-MB-436, 120 h.

PARP1, sequence (P09874 whole entry): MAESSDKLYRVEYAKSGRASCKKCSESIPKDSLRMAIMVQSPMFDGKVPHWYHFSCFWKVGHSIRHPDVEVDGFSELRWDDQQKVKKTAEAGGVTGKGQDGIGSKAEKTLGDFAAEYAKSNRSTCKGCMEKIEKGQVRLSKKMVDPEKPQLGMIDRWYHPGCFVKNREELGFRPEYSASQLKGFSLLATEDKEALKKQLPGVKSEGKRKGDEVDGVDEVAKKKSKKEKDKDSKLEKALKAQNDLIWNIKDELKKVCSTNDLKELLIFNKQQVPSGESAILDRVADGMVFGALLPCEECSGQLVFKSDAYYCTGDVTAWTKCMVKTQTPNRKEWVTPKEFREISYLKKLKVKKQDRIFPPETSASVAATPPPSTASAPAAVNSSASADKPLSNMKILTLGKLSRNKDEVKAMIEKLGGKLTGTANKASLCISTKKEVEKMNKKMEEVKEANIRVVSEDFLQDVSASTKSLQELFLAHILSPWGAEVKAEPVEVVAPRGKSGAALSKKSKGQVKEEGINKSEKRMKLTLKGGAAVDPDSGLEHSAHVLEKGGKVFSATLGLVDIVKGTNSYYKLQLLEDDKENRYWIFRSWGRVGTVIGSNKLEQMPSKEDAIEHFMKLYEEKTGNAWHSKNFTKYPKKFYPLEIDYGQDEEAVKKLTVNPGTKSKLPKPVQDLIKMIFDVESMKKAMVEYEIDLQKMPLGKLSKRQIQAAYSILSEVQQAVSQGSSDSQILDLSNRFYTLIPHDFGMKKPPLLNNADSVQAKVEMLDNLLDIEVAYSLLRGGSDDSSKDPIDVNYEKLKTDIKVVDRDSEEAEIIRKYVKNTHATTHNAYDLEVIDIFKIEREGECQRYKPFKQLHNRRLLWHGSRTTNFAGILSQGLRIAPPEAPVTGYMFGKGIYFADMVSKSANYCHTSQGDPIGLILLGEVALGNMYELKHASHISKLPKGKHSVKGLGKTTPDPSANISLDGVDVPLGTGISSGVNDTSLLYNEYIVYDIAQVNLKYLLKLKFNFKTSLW
T1 sequence (Q13535 whole entry): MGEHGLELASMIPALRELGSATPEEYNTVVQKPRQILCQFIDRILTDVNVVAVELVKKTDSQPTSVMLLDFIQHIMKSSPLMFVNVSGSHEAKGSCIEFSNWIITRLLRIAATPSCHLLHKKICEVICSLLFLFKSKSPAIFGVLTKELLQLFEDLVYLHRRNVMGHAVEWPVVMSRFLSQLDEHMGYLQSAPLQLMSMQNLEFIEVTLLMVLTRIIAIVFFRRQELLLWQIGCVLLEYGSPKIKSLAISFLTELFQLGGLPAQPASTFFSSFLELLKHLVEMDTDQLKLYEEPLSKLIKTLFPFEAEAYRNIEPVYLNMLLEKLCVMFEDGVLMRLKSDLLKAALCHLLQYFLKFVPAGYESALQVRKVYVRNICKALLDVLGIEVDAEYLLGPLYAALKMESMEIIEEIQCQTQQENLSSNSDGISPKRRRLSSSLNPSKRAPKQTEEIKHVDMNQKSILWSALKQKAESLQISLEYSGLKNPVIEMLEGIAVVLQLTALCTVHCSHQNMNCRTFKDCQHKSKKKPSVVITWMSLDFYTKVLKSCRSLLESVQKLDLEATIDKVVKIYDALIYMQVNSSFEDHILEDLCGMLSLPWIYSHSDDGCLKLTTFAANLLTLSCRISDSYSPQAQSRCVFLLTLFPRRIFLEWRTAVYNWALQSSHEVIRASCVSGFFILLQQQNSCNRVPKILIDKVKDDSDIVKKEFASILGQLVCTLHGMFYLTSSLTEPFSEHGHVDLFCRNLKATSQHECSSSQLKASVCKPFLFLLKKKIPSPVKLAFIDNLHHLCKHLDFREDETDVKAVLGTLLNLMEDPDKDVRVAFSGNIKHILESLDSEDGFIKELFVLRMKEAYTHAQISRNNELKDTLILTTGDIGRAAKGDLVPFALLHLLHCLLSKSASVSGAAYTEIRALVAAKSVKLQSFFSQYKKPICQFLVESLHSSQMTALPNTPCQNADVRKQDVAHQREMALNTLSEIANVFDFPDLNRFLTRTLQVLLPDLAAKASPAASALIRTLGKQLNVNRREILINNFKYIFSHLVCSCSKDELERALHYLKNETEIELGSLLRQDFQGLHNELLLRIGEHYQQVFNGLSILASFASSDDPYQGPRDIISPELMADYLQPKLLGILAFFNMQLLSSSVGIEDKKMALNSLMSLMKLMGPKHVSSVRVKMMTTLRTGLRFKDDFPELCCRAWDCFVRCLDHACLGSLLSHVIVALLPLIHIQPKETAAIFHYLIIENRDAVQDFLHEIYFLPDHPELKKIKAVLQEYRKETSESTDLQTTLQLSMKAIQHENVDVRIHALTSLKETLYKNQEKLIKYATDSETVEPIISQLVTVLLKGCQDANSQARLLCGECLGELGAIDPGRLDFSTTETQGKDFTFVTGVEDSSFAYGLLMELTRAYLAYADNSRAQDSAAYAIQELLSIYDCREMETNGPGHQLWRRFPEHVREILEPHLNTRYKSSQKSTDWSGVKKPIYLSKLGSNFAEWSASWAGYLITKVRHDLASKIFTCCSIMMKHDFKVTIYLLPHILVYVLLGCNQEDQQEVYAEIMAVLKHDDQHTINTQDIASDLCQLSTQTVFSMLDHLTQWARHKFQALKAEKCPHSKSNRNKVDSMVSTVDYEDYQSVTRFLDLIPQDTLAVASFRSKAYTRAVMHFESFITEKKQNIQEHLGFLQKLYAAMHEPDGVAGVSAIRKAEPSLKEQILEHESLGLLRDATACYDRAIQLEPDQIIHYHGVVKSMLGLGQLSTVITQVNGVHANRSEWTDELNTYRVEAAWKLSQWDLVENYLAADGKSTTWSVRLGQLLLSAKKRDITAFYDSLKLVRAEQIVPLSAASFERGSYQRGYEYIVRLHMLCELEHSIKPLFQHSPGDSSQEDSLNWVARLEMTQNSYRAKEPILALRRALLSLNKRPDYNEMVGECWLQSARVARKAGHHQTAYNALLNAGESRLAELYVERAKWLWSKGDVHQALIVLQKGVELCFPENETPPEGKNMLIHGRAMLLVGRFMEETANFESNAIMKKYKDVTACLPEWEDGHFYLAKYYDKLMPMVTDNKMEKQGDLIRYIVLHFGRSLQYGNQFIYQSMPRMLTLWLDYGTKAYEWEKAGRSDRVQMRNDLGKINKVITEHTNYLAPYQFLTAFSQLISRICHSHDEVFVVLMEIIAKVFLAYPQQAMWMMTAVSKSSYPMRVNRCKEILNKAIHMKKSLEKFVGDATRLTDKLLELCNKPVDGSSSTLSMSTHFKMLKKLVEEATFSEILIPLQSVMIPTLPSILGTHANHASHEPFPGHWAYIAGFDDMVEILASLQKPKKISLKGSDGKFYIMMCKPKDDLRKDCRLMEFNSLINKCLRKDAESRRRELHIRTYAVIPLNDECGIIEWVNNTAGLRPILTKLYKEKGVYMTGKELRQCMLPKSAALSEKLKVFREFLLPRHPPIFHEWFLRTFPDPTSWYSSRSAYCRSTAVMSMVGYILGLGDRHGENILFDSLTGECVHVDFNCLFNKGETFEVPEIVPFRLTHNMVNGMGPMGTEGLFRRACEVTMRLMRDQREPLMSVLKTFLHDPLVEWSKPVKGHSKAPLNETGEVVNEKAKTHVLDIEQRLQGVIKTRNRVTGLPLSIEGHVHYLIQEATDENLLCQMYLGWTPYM
T1 sequence (Q8WXE1 whole entry partner): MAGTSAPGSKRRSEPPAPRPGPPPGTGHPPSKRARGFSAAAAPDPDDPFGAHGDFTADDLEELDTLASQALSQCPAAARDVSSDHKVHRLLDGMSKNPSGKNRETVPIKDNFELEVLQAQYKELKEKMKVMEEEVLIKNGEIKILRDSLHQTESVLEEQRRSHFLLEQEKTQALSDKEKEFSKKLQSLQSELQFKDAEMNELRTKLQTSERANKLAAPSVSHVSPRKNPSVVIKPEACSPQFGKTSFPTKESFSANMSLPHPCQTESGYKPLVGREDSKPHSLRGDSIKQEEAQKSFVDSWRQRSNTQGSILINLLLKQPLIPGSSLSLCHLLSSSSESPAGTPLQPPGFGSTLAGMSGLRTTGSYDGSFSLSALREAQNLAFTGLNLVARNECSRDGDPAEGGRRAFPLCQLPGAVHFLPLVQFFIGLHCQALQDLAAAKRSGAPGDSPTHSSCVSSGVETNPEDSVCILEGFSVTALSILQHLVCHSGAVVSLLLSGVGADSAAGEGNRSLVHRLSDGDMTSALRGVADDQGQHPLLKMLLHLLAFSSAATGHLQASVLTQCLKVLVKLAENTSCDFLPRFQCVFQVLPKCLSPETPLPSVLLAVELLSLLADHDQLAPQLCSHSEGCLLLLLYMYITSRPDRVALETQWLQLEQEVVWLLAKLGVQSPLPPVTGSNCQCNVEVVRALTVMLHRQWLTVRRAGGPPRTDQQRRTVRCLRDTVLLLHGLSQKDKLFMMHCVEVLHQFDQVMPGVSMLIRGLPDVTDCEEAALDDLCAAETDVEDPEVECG

One may read the IC50 as the concentration that inhibits the measured activity by half. Turning to `C[C@@H]1COCCN1c1cc(C2(NC(=O)c3ccc(C(=O)N4CCN(C(=O)c5cc(Cc6n[nH]c(=O)c7ccccc67)ccc5F)CC4)cc3)CC2)nc(-c2ccnc3[nH]ccc23)n1` [Compound A7, (R) ‐4‐(4‐(2‐fluoro‐5‐((4‐oxo‐3,4‐dihydrophthalazin‐1‐yl)methyl)benzoyl)piperazine‐1‐carbonyl)‐N‐(1‐(6‐(3‐methylmorpholino)‐2‐(1H‐pyrrolo[2,3‐b]pyridin‐4‐yl)pyrimidin‐4‐yl)cyclopropyl)benzamide], the IC50 against PARP1 is 0.00056 ± 0.00021 µM; in the test with MDA‐MB‐436 (setting [6]) it was 0.015 ± 0.001 µM; on ATR, 0.043 ± 0.007 µM; in the test with MDA‐MB‐231, 13.4 ± 3.44 µM; with MDA‐MB‐468 it was 0.23 ± 0.07 µM. The “effect on cell cycle distribution” value with MDA‐MB‐468 cells [1] and with MDA‐MB‐231 cells [2] was “did not demonstrate any significant effects on the cell cycle” each time. The “ability to induce apoptosis vs combination of AZD6738 and Olaparib” value in the test on MDA‐MB‐468 cells [3] and in the test with MDA‐MB‐231 cells [4] was “does not show a significant enhancement” throughout.

Turning to `C[C@@H]1COCCN1c1cc(CNC(=O)c2cc(Cc3n[nH]c(=O)c4ccccc34)ccc2F)nc(-c2ccnc3[nH]ccc23)n1` [Compound B1, (R)‐2‐fluoro‐N‐((6‐(3‐methylmorpholino)‐2‐(1H‐pyrrolo[2,3‐b]pyridin‐4‐yl)pyrimidin‐4‐yl)methyl)‐5‐((4‐oxo‐3,4‐dihydrophthalazin‐1‐yl)methyl)benzamide], on PARP1, the “activity against PARP1 (SAR summary in words, Figure 7)” value is recorded as “moderate activity”. Moreover, the IC50 was found to be 0.42 ± 0.031 µM against PARP1; 0.91 ± 0.05 µM with MDA‐MB‐436 (setting [6]); 0.0395 ± 0.0037 µM on ATR; 3.05 ± 0.76 µM with MDA‐MB‐231; 7.88 ± 1.14 µM with MDA‐MB‐468. Besides, the “activity against ATR (SAR summary in words, Figure 7)” value at ATR was “moderate activity”. In [5], the “activity against TNBC cells (SAR summary in words, Figure 7)” value was “weak activity”.

On to `C[C@@H]1COCCN1c1cc(C2(NC(=O)c3cc(Cc4n[nH]c(=O)c5ccccc45)ccc3F)CC2)nc(-c2ccnc3[nH]ccc23)n1` [Compound A1, (R)‐2‐fluoro‐N‐(1‐(6‐(3‐methylmorpholino)‐2‐(1H‐pyrrolo[2,3‐b]pyridin‐4‐yl)pyrimidin‐4‐yl)cyclopropyl)‐5‐((4‐oxo‐3,4‐dihydrophthalazin‐1‐yl)methyl)benzamide], for which the “activity against PARP1 (SAR summary in words, Figure 7)” value on PARP1 is reported as “moderate activity”. The IC50 on PARP1 was found to be 1.15 ± 0.043 µM; with MDA‐MB‐436 (setting [6]), 2.92 ± 2.05 µM; at ATR, 0.215 ± 0.022 µM; with MDA‐MB‐231, 5.26 ± 1.14 µM; in the test on MDA‐MB‐468, 8.54 ± 1.07 µM. In addition, the “activity against ATR (SAR summary in words, Figure 7)” value on ATR was “moderate activity”. Further, the “activity against TNBC cells (SAR summary in words, Figure 7)” value in test [5] is reported as “weak activity”.

With `C[C@@H]1COCCN1c1cc(C2([S@](C)(=N)=O)CC2)nc(-c2cc[nH]c3nccc2-3)n1` [8 (AZD6738), Ceralasertib, reference compound], the inhibition at 30 µM with MCF‐10A was 25.9%. The “effect on cell cycle distribution” value in the test with MDA‐MB‐468 cells [1] is “did not significantly change the cell cycle distribution”. Further, the IC50 was 3.84 ± 0.52 µM with MDA‐MB‐436; 3.8 µM in the test on MDA‐MB‐436 (setting [6]); 1.46 ± 0.17 µM in the test on MDA‐MB‐453 (MDA-MB-453, n = 3, read-out: IC50 MAD‐MB‐453); 2.01 ± 0.43 µM with MCF‐7; 18.6 ± 1.75 µM in the test on MDA‐MB‐468.

Consider `O=C(c1cc(Cc2n[nH]c(=O)c3ccccc23)ccc1F)N1CCN(C(=O)C2CC2)CC1` [1 (Olaparib), Olaparib, reference compound], for which the inhibition at 30 µM with MCF‐10A is 14.5%. In addition, the “effect on cell cycle distribution” value with MDA‐MB‐468 cells [1] and in the test on MDA‐MB‐231 cells [2] was “did not significantly change the cell cycle distribution” throughout. The IC50 with MDA‐MB‐436 is 4.53 ± 0.21 µM; in the test on MDA‐MB‐436 (setting [6]), 4.5 µM; in the test with MDA‐MB‐453 (MDA-MB-453, read-out: IC50 MAD‐MB‐453), above 30 µM; with MCF‐7 it was above 30 µM; in the test with MDA‐MB‐231 it was 21.9 ± 2.36 µM; in the test on MDA‐MB‐468, 10.5 ± 0.59 µM.
